Type in all cases: cell-based
One assay deals with rat basal forebrain. The assay is described as follows: voltage-sensitive dye imaging (VSDI) on brain slices. Conditions: for magnitude (summed fluorescence) of evoked responses, compound alone: 4 μM in perfusate, no T30, rat basal forebrain slices. The method, then: Male Wistar rats (14 days old) were anaesthetised using isoflurane ([…], 100% w/w). Isoflurane was applied to the cotton bed at the bottom of an anaesthetic chamber (glass box 20×15×15 cm) where rats were then placed for approximately 45 s until complete anaesthesia was reached. The hind paw of each anaesthetised rat was pinched to check for the appropriate depth of anaesthesia. Upon confirmation of anaesthesia, rats were quickly decapitated, with the brain being quickly removed and immersed in ice cold oxygenated ‘slicing’ artificial cerebrospinal fluid (aCSF in mmol: 120 NaCl, 5 KCL, 20 NaHCO3, 2.4 CaCl2 2 MgSO4, 1.2 KH2PO4, 10 glucose, 6.7 HEPES salt and 3.3 HEPES acid; pH=7.1). Coronal slices (400 μm thick) were then taken from a block of brain containing the basal forebrain, namely the MS-dBB complex (between +9.20 and +9.48 mm Interaural and +0.48 and +0.2 mm Bregma, FIG. 4A) and the somatosensory barrel field cortex (SiBF, between +8.08 and +7.20 mm Interaural and −0.92 mm and −1.80 mm Bregma) (Paxinos and Watson, 1998) using a Vibratome (Leica VT1000S). Slices were then transferred to a bubbler pot containing oxygenated aCSF at room temperature (recording aCSF in mmol: 124 NaCl, 5 KCL, 20 NaHCO3, 2.4 CaCl2 2 MgSO4, 1.3 KH2PO4, 10 glucose; pH=7.4) which was identical to that used in VSDI (voltage sensitive dye imaging) recording. Slices were then left for approximately 1-1.5 hours before preparing them for VSD staining.
Slices were placed in a dark, high humidity chamber filled with aCSF bubbled with 95% O2, 5% CO2. Once there, the dye solution (4% 0.2 mM styryl dye pyridinium 4-[2-[6-(dibutylamino)-2-napthalenyl]-ethenyl]-1-(3-sulfopropyl)hydroxide(Di-4-NEPPS), Invitrogen, Paisley, UK in 48% aCSF, 48% foetal bovine serum, 3.5% DMSO and 0.4% cremophore EL) (Tominaga et al., 2000) was applied to the slices for 20-25 minutes before being transferred back to a bubbler pot containing oxygenated aCSF kept at room temperature for 30 minutes.
When starting the VSDI recordings, slices were placed in the recording bath on a small piece of filter paper to allow the flow of oxygenated aCSF on the underside of the slice and in order to keep it alive. The slice was then weighed down by a home-made plastic grid that was placed on top of the slice. The perfusing bath solution was heated to 30±1° C. by a stage heater. A concentric bipolar stimulating electrode (FHC, Maine, USA) was placed in the ventral diagonal band of the basal forebrain with stimulation being set to 30V. For the acquisition of VSD data, 2 dimensional images, equivalent to 88×60 pixels, were recorded using the MiCamo2 High Resolution camera (Brain Vision, Japan) with BV_Analyze imaging software. Acquisition of images was coupled to Spike2 V4.23 software (CED Ltd, Cambridge, UK) in order to align the image capture with the stimulation protocol (every 28 s with 30 repeats) via the Micro 1401 MkII. (CED Ltd, Cambridge, UK). Light was generated using an Osram halogen xenophot 64634 HLX EFR Display/Optic lamp and was filtered to emit green (530±10 nm) light using a MHF-G150LR (Moritex Corporation) coupled to the MiCamo2 High resolution imaging system and filtered the emitted fluorescence through a >590 nm high pass filter.
All drug and peptide stocks were prepared in frozen aliquots prior to experiments. For the production of perfusion solutions, stock solutions were thawed and added to recording aCSF as appropriate and bath applied at a constant rate of 1.5 ml/min perfusion using the Minipulse 3 peristaltic pump (Gilson Scientific Ltd., Bedfordshire, UK).

Assay [1] concerns AChE activity, PC12 cells. Conditions: for protection against T30-induced AChE activity: T30 1 μM combined with blocker. The method, then:
AChE activity was measured using the Ellman reagent that measures the presence of thiol groups as a result of AChE activity. In the case of the G4 experiment, AChE (G4) activity was tested alone and also together with either NBP14 or Tri peptides. PC12 cells were plated the day before the experiment as for the cell viability assay. Cells were treated with T30 (1 μM) alone or combined with NBP14 or Tri peptide (0.5 μM). After treatment, supernatant (perfusate) of each treatment was collected and 25 μL from is each condition were added to a new flat bottomed 96 well plate followed by the addition of 175 μl of Ellman reagent (Solution A: KH2PO4 139 mM and K2HPO4 79.66 mM, pH 7.0; solution B (substrate): Acetylthiocholine Iodide 11.5 mM; Solution C (Reagent): 5,5′-dithiobis (2-nitrobenzoic acid) 8 mM and NaHCO15 mM). The Ellman reagent was prepared as a mixture of the 3 solutions in a ratio 33(A):3(B):4(C). Absorbance measurements were taken for an interval of 60 minutes across experiments at 405 nm in a Vmax plate reader (Molecular devices, Wokingham, UK).
(§1) In each of the different cell techniques, the statistics analysis was performed with the average of the percentage values of 3 or more experiments. Comparisons between multiple treatment groups and the same control were performed by one-way analysis of variance (ANOVA) and Tukey's post-hoc tests using GraphPAD Instat (GraphPAD software, San Diego, Calif.). Statistical significance was taken at a p value<0.05.

In assay [2] the test system is alpha7 nicotinic receptors, PC12 cells. The assay is described as follows: Calcium fluorometry (Fluo-8), PNU282987-induced calcium influx in PC12 cells. Conditions: PNU282987 1 μM; for protection against T30-induced calcium influx: T30 combined with blocker. The method, then:
PC12 cells were plated in 200 μl of Dulbecco's Modified Eagle's medium (DMEM) plus 2 mM of L-glutamine medium the day before the experiment in 96 well plates. On the day of the experiment, the Fluo-8 solution (Abcam) was prepared as described by the provider by adding 20 μl of Fluo-8 in the assay buffer that contains 9 ml of Hank's Balanced Salt Solution (HBSS) and 1 ml of pluronic F127 Plus. Subsequently, 100 μl of growth medium was removed and 100 μl of Fluo-8 solution were added. Treatments with T30 in conjunction with NBP14 or Tri peptides were added and incubated for 30 minutes in the incubator and 30 minutes room temperature. After 1 h, the plate was placed in the fluorescence plate reader (Fluostar, Optima, BMG Labtech, Ortenberg, Germany). Before reading the fluorescence, PNU282987 1 μM, an alpha7 specific agonist of the nicotinic receptors, was prepared and placed in the Fluostar injector. For each well, the reading was formed by a basal fluorescence reading followed by PNU282987 injection that induced an increase of calcium via nicotinic receptors.
as §1

The subject of another assay is astroglia. The assay is described as follows: cell proliferation assay (trophic-toxic effects). Conditions: for toxic effect in cell proliferation assay: high concentration, 10 μM.
Setting [3] is: co-perfusion 4 μM blocker with 2 uM T30.

Entries after “also recorded” stand apart in the source; their conditions may differ. Square brackets hold non-standard residues; d marks the D form. Peptide text beside a SMILES is read from it. Bpa = N[C@@H](Cc1ccc(C(=O)c2ccccc2)cc1)C(=O)O; Phe(4-NH2) = Nc1ccc(C[C@H](N)C(=O)O)cc1; hArg = N=C(N)NCCCC[C@H](N)C(=O)O

Turning to `CC(=O)N[C@@H](Cc1ccc2ccccc2c1)C(=O)N[C@@H](Cc1ccc(N)cc1)C(=O)N[C@@H](Cc1c[nH]c2ccccc12)C(N)=O` [Tri02] (HELM PEPTIDE1{[ac].[O=C([C@H](Cc1ccc2ccccc2c1)N[*:1])[*:2]].[Nc1ccc(C[C@H](N[*:1])C(=O)[*:2])cc1].W.[am]}$$$$V2.0), the entries for the “magnitude (summed fluorescence) of evoked responses, compound alone” value with rat basal forebrain and in the assay with rat basal forebrain (listed as Triol) were “small alterations” and “recapitulates results seen with application of 4 μM NBP14”, respectively. For the same molecule, in the assay on rat basal forebrain (setting [3]), the “blocking of T30-induced effects on basal forebrain activity” value (“blocking of T30-induced effects” below) is “not found to protect against T30-induced deviations from baseline; also recorded: some efficacy in blocking those T30-induced deviation”. Moreover, the “protection against T30-induced AChE activity” value in assay [1] is “protects against the toxic effects of T30”. In addition, the “protection against T30-induced calcium influx” value in assay [2] is recorded as “protects against the toxic effects of T30”.
In the case of `CC(=O)N[C@@H](Cc1ccc(C(=O)c2ccccc2)cc1)C(=O)N[C@@H](CCCCNC(=N)N)C(=O)N[C@@H](Cc1ccc(N)cc1)C(N)=O` [Tri04] (Ac-[Bpa]-[hArg]-[Phe(4-NH2)]-NH2), the “blocking of T30-induced effects” value is “significant effect on basal forebrain population activity; also recorded: reversal of the inhibitory effect of T30; also recorded: increase in network activity; also recorded: protective role” in the assay on rat basal forebrain (co-perfusion 2 μM blocker with 2 μM T30, n=29) and “totally block the T30-induced effects; also recorded: recapitulates results previously seen with the application of 4 μM NBP14; also recorded: significant effect reversing T30 activity” in the assay on rat basal forebrain (setting [3]). In addition, the “protection against T30-induced calcium influx” value in assay [2] is recorded as “protects the toxic effects of T30 by reducing calcium influx”.
With “AEFHRWSSYMVHWK (listed as Homo sapiens) [Compound T14, toxic 14 amino acid peptide from the C-terminus of acetylcholinesterase]”, the “cell proliferation, trophic effect on astroglia” value in the assay on astroglia (1 pM peptide) turned out to be 96±5%; in the assay with astroglia (10 pM peptide), 121±8%. In the assay with astroglia, the “toxic effect in cell proliferation assay” value is “equal toxic effects”.
Consider “KAEFHRWSSYMVHWKNQFDHYSKQDRCSDL (listed as Homo sapiens) [Compound T30, Acetylcholinesterase (AChE) C-terminus 30 amino acid peptide]”, for which the “effect of T30 alone on evoked VSDI signal” value in the assay on rat basal forebrain (T30 2 uM, basal forebrain of p14 rats) is listed as “greatest deviation; also recorded: net inhibition”. Further, in assay [1] (peptide alone, 1 μM), the AChE activity result is “increases”. Also, the calcium influx result in assay [2] (peptide alone, 1 μM) is “increases”. Further, the figures for the “cell proliferation, trophic effect on astroglia” value with astroglia (1 pM peptide) and in the assay with astroglia (10 pM peptide) were 120±4% and 135±9%, respectively. Besides, the “toxic effect in cell proliferation assay” value in the assay with astroglia is reported as “equal toxic effects”.
On to “c[AEFHRWSSYMVHWK] (head-to-tail cyclised; listed as Homo sapiens) [NBP14]”, for which the “magnitude (summed fluorescence) of evoked responses, compound alone” value in the assay with rat basal forebrain is given as “small, non-significant alterations”. In the assay with rat basal forebrain (setting [3]), the “blocking of T30-induced effects” value is listed as “totally block the T30-induced effects”. In addition, the “protection against T30-induced AChE activity” value in assay [1] is listed as “protects against these toxic effects”. The “protection against T30-induced calcium influx” value in assay [2] is listed as “protects against these toxic effects”.

(Values after US11287416B2, “Cancer” (NEURO-BIO LTD, priority 2016, dated 2022).)
